target: T1, FLAG-tagged PRMT6 (Homo sapiens, UniProt Q96LA8); assay: Fluorescence-based in vitro PRMT assay (F-PRMT assay), PRMT6; assay type: biochemical; conditions: Table S2; 100 µM compound, vs solvent control = 100%, n=3; racemates used
T1 construct: The complete ORFs of human PRMT3 and PRMT6 were inserted; made in house; host or cells: Sf9 insect cells (baculovirus)
From the text: (§1) To evaluate the effects of the selected candidate molecules on the catalytic activity of type I enzymes, we employed a quantitative fluorescence-based in vitro PRMT activity (F-PRMT) assay using recombinant FLAG-tagged PRMT proteins expressed and affinity-purified from baculovirus-infected Sf9 cells (SI Figure S1, SI Figure S2A).
(§2) Human cell lines (PaTu8988T, PANC-1) were obtained from ATCC (American Type Culture Collection) and cultured in DMEM supplemented with 10% fetal calf serum (FCS, Gibco/BRL), 1% penicillin/streptomycin at 37 °C and 5% CO2. […] For PRMT1 inhibition, cells were treated with type I PRMT inhibitor MS023 hydrochloride (Biomol). For induction of genotoxic stress, cells were treated with gemcitabine (LC Laboratories). […] The following plasmids were used: pFASTBAC-FLAG-rat PRMT1, pFASTBAC-FLAG-mouse PRMT4, and pGEX-GAR. The complete ORFs of human PRMT3 and PRMT6 were inserted into the pFASTBAC HT-3xFLAG B vector via BamHI/HindIII and BamHI/XhoI sites, respectively.
(§3) For PRMT protein expression in insect cells, recombinant baculovirus (bacmid) was generated using the Bac-to-Bac baculovirus system (Invitrogen). Sf9 cells were transfected with bacmid DNA using X-tremeGENE HP DNA transfection reagent (Sigma-Aldrich) according to the manufacturer's instructions. After 3–5 days, supernatants were collected, filtered, and used to infect Sf9 cells to amplify the virus. After 2 rounds of virus amplification and estimation of the final P3 virus titer, the P3 virus (2–5 μL/10^6 cells) was applied for large-scale infection of 200 × 10^6 Sf9 cells in suspension culture at a density of 1 × 10^6 cells/mL. Cells were harvested 5–6 days post-infection by centrifugation at 500 g for 5 min at room temperature. Protein purification from baculovirus-infected Sf9 cells was performed as previously described. , Cells were lysed in BC buffer (20 mM HEPES pH 7.9, 250 mM NaCl, 10% (v/v) glycerin, 0.4 mM EDTA, 1 mM DTT) containing a protease inhibitor cocktail (Roche) by 3 freeze-thaw cycles. After centrifugation at 11,000 rpm (Sorval SS34 rotor) and 4 °C for 1 h, the supernatant (whole cell protein extract) was incubated with anti-FLAG M2 Affinity Gel (Cytiva) at 4 °C and under agitation for 4 h. Subsequently, beads were washed in BC buffer containing various NaCl concentrations (once in BC with 1 M NaCl, twice in BC with 500 mM NaCl, twice in BC with 250 mM NaCl and twice in BC with 100 mM NaCl). FLAG-tagged proteins were either maintained bead-bound as a 50% (v/v) slurry in BC buffer with 100 mM NaCl and stored at −80 °C or were eluted in the appropriate elution buffer (depending on the subsequent assay) containing 0.25 mg/mL 3xFLAG peptides (Sigma-Aldrich) at 4 °C for 30–45 min. To remove the FLAG-peptides from the eluate, dialysis was performed in elution buffer containing 10% (v/v) glycerol at 4 °C for 4–6 h using Slide-A-Lyzer Dialysis Devices (Thermo Fisher Scientific) according to the manufacturer’s recommendations.
(§4) In the first step, the fluorogenic substrate Nα-Benzoyl-L-arginine-7-amido-4-methylcoumarin (Bz-Arg-AMC, Sigma-Aldrich) undergoes methylation by PRMTs upon the addition of the cofactor SAM. In the second reaction step, trypsin cleaves the nonmethylated substrate, leading to the generation of the 7-amino-4-methylcoumarin product, which can be quantified by subsequent fluorescence measurement (excitation: 355 nm, emission: 460 nm). The first reaction was conducted with bead-bound PRMTs at a total volume of 100 μL. Each condition was performed as a technical triplicate to determine the mean and the standard deviation. […] For the negative controls, SAM was substituted with assay buffer. The incubation was continued at 37 °C and under agitation (1,000 rpm) for a duration of 2 h.

T1 sequence (Q96LA8 whole entry): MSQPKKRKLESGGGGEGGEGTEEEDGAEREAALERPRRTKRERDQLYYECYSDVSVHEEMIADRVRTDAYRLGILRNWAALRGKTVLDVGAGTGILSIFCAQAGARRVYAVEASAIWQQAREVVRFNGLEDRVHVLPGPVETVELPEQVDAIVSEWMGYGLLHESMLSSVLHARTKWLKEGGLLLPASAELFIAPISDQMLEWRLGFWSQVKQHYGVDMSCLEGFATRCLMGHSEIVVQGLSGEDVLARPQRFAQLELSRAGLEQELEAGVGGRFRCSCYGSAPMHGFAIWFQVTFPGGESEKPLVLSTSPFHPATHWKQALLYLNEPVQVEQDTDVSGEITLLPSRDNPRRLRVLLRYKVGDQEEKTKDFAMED

Structure (SMILES) | Experimental result (PRMT6)
CN1CCC[C@H]1CCn1ccnc1-c1ccc2nonc2c1 (racemic) [Compound K002FT007] | n.e. (did not significantly affect the catalytic activity of the intended PRMT (less than ±6% change or not significant p-value), are marked with n.e. (no effect))
COc1cc(CNC(C)C)ccc1OCc1nc(C)no1 [Compound K002JS018] | n.e. (did not significantly affect the catalytic activity of the intended PRMT (less than ±6% change or not significant p-value), are marked with n.e. (no effect))
COc1cc(CN2CCC(CN)C2)cc(Cl)c1OC (stereo not drawn) [Compound K002JS010] | n.e. (did not significantly affect the catalytic activity of the intended PRMT (less than ±6% change or not significant p-value), are marked with n.e. (no effect))

target: T2, FLAG-tagged PRMT1 (Rattus norvegicus, UniProt Q63009); assay: Fluorescence-based in vitro PRMT assay (F-PRMT assay), PRMT1; assay type: biochemical; conditions: 100 μM compound
T2 construct: Full-length FLAG-tagged PRMT protein; made in house; host or cells: Sf9 insect cells (baculovirus)
T2 sequence (Q63009 whole entry): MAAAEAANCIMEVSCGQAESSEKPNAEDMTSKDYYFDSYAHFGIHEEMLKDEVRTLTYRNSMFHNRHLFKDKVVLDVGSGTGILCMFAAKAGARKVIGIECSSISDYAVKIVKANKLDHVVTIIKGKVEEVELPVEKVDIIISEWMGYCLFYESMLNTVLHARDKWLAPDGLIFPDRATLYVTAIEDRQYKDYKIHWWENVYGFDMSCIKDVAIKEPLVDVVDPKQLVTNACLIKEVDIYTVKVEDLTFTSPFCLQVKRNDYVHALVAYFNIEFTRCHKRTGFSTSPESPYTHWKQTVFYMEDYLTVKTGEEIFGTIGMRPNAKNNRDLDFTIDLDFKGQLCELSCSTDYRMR

Structure (SMILES) | effect on PRMT1 activity (in words)
CN(C)CCCN/C=C1\C(=O)NC(=O)c2ccccc21 [TR-018, (Z)-4-({[3-(Dimethylamino)propyl]amino}methylene)isoquinoline-1,3(2H,4H)-dione] | activated PRMT1 in a significant manner, albeit to a considerably lesser extent than TR-07
O=C1NC(=O)c2ccccc2C1=CNc1cccnc1 [TR-031] | no significant effect
CN(C)Cc1ccccc1N/C=C1\C(=O)NC(=O)c2ccccc21 [TR-022] | equal
CN(C)c1ccccc1CN/C=C1\C(=O)NC(=O)c2ccccc21 [ICTR-052] | no effect or a modest activating effect
C[N+](C)(C)Cc1cccc(CN/C=C2\C(=O)NC(=O)c3ccccc32)c1.[I-] [ICTR-108] | no effect or a modest activating effect
O=C1NC(=O)c2ccccc2C1=CNc1cccc(CN2CCOCC2)c1 [TR-038] | strong inhibitory effect
CCN(CC)Cc1ccccc1-c1ccc2[nH]c(=O)c3ccccc3c2c1 [ICTR-094] | significantly lower activation of PRMT1 compared to TR-07
O=C1NC(=O)c2ccccc2/C1=C/Nc1ccccn1 [TR-030, (Z)-4-[(Pyridin-2-ylamino)methylene]isoquinoline-1,3(2H,4H)-dione] | no significant effect
CN(C)c1ccccc1N/C=C1\C(=O)NC(=O)c2ccccc21 [ICTR-015] | no effect
CCN(CC)Cc1cccc(-c2ccc3[nH]c(=O)c4ccccc4c3c2)c1 [ICTR-096] | significantly increased PRMT1 activity
CN(C)Cc1ccccc1CN/C=C1\C(=O)NC(=O)c2ccccc21 [ICTR-063] | reduced activating effect
CC(C)Cc1ccc(N/C=C2\C(=O)NC(=O)c3ccccc32)cc1 [ICTR-076] | no effect
CCN(CC)c1ccccc1N/C=C1\C(=O)NC(=O)c2ccccc21 [ICTR-060] | no effect
CCN(CC)Cc1ccccc1CN/C=C1\C(=O)NC(=O)c2ccccc21 [ICTR-119] | no significant effect
Nc1ccccc1N/C=C1\C(=O)NC(=O)c2ccccc21 [ICTR-019] | no effect
O=C1NC(=O)c2ccccc2C1=CNc1ccccc1Cn1cncn1 [ICTR-042] | no significant or minimal inhibitory activity
O=C1NC(=O)c2ccccc2C1=CNCc1cccnc1 [TR-032] | activated PRMT1 in a significant manner, albeit to a considerably lesser extent than TR-07
O=C1NC(=O)c2ccccc2C1=CNc1ccccc1Cn1cccc1 [ICTR-036] | no significant or minimal inhibitory activity

same assay, conditions: 100 μM compound, increase over solvent-treated activity; read-out: enhancement (increase) of PRMT1 enzymatic activity

Structure (SMILES) | activation at 100 µM [%]
CN(C)Cc1ccc(N/C=C2\C(=O)NC(=O)c3ccccc32)cc1 [TR-021] | ≥ 60
CCN(CC)Cc1cccc(-c2ccc3[nH]c(=O)c4ccccc4c3c2)c1 [ICTR-096] | ≥ 60

target: T3, FLAG-tagged PRMT4 (Mus musculus, UniProt Q9WVG6); assay: Fluorescence-based in vitro PRMT assay (F-PRMT assay), PRMT4; assay type: biochemical; conditions: Table S2; 100 µM compound, vs solvent control = 100%, n=3; racemates used
T3 construct: Full-length FLAG-tagged PRMT protein; made in house; host or cells: Sf9 insect cells (baculovirus)
T3 sequence (Q9WVG6 1-608): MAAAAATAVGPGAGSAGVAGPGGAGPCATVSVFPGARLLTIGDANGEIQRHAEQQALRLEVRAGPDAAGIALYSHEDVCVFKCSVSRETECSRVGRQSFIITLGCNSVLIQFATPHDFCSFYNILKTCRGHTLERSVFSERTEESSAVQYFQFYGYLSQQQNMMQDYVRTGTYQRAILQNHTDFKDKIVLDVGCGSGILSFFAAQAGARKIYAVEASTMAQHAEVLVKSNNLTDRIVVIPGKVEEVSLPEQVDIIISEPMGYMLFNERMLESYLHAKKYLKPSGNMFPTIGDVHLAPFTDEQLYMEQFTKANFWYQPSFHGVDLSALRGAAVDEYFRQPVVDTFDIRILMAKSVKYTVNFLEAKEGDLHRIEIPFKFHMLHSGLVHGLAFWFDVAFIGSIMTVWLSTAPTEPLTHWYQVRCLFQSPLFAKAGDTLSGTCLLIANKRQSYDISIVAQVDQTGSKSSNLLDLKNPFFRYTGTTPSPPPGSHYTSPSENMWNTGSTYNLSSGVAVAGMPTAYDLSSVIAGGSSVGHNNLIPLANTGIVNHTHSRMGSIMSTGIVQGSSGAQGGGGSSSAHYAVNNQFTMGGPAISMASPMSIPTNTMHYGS
From the text: as §1, §2, §3, §4

Structure (SMILES) | Experimental result (PRMT4)
COc1cccc(NC(=O)COC(=O)c2cc3ccccc3[nH]2)c1 [Compound K001JS005] | n.e. (did not significantly affect the catalytic activity of the intended PRMT (less than ±6% change or not significant p-value), are marked with n.e. (no effect))
COC(=O)COc1ccc(NC(=O)C23CC(CN2)C3)cc1 [Compound K400JK003] | n.e. (did not significantly affect the catalytic activity of the intended PRMT (less than ±6% change or not significant p-value), are marked with n.e. (no effect))
O=c1ccc([N+](=O)[O-])cn1Cc1nccn1Cc1ccccc1 [Compound K001JS009] | n.e. (did not significantly affect the catalytic activity of the intended PRMT (less than ±6% change or not significant p-value), are marked with n.e. (no effect))
CNCCCc1ncc(-c2ccccc2Br)[nH]1 [Compound K001FT002] | n.e. (did not significantly affect the catalytic activity of the intended PRMT (less than ±6% change or not significant p-value), are marked with n.e. (no effect))
O[C@H](CNCc1ccco1)COc1ccc2ccccc2c1 (racemic) [Compound K001JS002] | n.e. (did not significantly affect the catalytic activity of the intended PRMT (less than ±6% change or not significant p-value), are marked with n.e. (no effect))
N/C(Cn1ccn2nc(-c3cccs3)cc2c1=O)=N\O [Compound K400JK015] | n.e. (did not significantly affect the catalytic activity of the intended PRMT (less than ±6% change or not significant p-value), are marked with n.e. (no effect))
CS(=O)(=O)c1ccc(C(=O)NCc2nc3cc(F)ccc3[nH]2)cc1 [Compound K001JS011] | n.e. (did not significantly affect the catalytic activity of the intended PRMT (less than ±6% change or not significant p-value), are marked with n.e. (no effect))
Cc1nc([C@@H](O)Cc2ccccc2)n(CCc2cnc[nH]2)n1 (racemic) [Compound K001FT007] | n.e. (did not significantly affect the catalytic activity of the intended PRMT (less than ±6% change or not significant p-value), are marked with n.e. (no effect))
CC[C@H](NC(=O)c1cccc(Cn2cccn2)c1)c1nc(C)c[nH]1 (racemic) [Compound K001FT009] | n.e. (did not significantly affect the catalytic activity of the intended PRMT (less than ±6% change or not significant p-value), are marked with n.e. (no effect))

same assay, conditions: Table S2; 100 µM compound; mean % difference vs solvent control (100%), n=3

Structure (SMILES) | Efficacy ±∆% (PRMT4) [%]
NCCNC[C@@H](O)COc1ccc(Cl)c(Cl)c1 (racemic) [Compound K001FT003] | -50
